Results reported in ChEMBL document CHEMBL4265919, “Structural alterations based on naproxen scaffold: Synthesis, evaluation of antitumor activity and COX-2 inhibition, and molecular docking” (Eur J Med Chem, 2018).

Tests used:
MCF7 = test: Antiproliferative activity against human MCF7 cells by MTT assay; format: functional, cell-based
HCT-116 = test: Antiproliferative activity against human HCT116 cells by MTT assay; format: functional, cell-based
MDA-MB-231 = test: Antiproliferative activity against human MDA231 cells by MTT assay; format: functional, cell-based
Caco-2 = test: Antiproliferative activity against human Caco2 cells by MTT assay; format: functional, cell-based
HeLa = test: Antiproliferative activity against human HeLa cells by MTT assay; format: functional, cell-based
[1] = biological target: T1, Prostaglandin G/H synthase 1 (Ovis aries, UniProt P05979); test: Inhibition of ovine COX1 using arachidonic acid as substrate incubated for 5 mins followed by substrate addition measured after 2 mins by colorimetric based ELISA
T1 sequence (P05979 whole entry): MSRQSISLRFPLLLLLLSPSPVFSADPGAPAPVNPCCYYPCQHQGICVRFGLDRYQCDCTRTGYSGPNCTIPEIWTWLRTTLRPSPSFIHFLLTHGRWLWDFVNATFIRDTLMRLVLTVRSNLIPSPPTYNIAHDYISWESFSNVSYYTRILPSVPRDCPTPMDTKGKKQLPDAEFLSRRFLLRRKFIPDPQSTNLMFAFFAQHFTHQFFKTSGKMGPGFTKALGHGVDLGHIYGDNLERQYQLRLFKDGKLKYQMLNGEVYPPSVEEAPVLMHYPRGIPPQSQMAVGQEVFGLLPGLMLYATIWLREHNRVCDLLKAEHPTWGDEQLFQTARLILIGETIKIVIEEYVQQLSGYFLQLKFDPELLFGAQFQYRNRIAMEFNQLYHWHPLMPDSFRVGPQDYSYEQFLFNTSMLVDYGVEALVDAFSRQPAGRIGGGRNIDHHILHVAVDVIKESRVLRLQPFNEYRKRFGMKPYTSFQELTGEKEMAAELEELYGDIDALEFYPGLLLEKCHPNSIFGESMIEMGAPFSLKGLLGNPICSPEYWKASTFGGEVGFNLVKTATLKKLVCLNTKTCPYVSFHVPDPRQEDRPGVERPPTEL

Row | Compound | IC50 (MCF7) [µM] | IC50 (HCT-116) [µM] | IC50 (MDA-MB-231) [µM] | IC50 (Caco-2) [µM] | IC50 (HeLa) [µM] | IC50 [1] [µM]
1 | COc1ccc2cc(C(C)c3nnc4n3NC(=O)CS4)ccc2c1 (stereo not drawn) | 85.7 | > 100 | 93.8 | > 100 | 86.4 | 
2 | COc1ccc2cc(C(C)C(=O)NN3C(=O)c4ccccc4C3=O)ccc2c1 (stereo not drawn) | 79.3 | 49.8 | 37.2 | 58.2 | 78.6 | > 25
3 | COc1ccc2cc(C(C)c3nnc(SCc4ccccc4)o3)ccc2c1 (stereo not drawn) | 91.4 | > 100 | 89.4 | > 100 | > 100 | 
4 | COc1ccc2cc(C(C)c3nnc(-c4ccc(C)cc4)o3)ccc2c1 (stereo not drawn) | 31.7 | 28.4 | 16.2 | 43.9 | 19.4 | > 25
5 | Cc1ccc(-c2cc(C(F)(F)F)nn2-c2ccc(S(N)(=O)=O)cc2)cc1 [CELECOXIB] | 31.3 | 29.5 | 22.8 | 42.7 | 36.1 | 
6 | COc1ccc2cc(C(C)C(=O)NN=C3CCCCCC3)ccc2c1 (stereo not drawn) | 48.2 | 44.7 | 32.7 | 46.1 | 59.4 | > 25
7 | COc1ccc2cc(C(C)c3n[nH]c(=S)n3/N=C/c3ccccc3)ccc2c1 (stereo not drawn) | 61.7 | 19.1 | 14.8 | 28 | 65.6 | > 25
8 | COc1ccc2cc(C(C)c3n[nH]c(=S)n3/N=C/c3cccc(Br)c3)ccc2c1 (stereo not drawn) | 9.26 | 8.76 | 8.14 | 16 | 12.1 | > 25
9 | COc1ccc2cc(C(C)c3n[nH]c(=S)n3N)ccc2c1 (stereo not drawn) | 38.3 | 60.5 | 41.8 | 77.7 | 20.7 | > 25
10 | COc1ccc2cc(C(C)C(=O)NN=C3CCCC3)ccc2c1 (stereo not drawn) | 71.5 | > 100 | 80.7 | > 100 | 69.1 | 
11 | COc1ccc2cc(C(C)c3nnc(SC4CCCC4)o3)ccc2c1 (stereo not drawn) | 47.1 | 34.3 | 23.2 | 50.9 | 48.9 | > 25
12 | COc1ccc2cc(C(C)c3nnc4n3N=C(c3ccccc3)CS4)ccc2c1 (stereo not drawn) |  | 67.4 | 49.2 | 81.3 |  | 
13 | COc1ccc2cc(C(C)C(=O)NN3C(=O)C=CC3=O)ccc2c1 (stereo not drawn) | 21.9 | 22.1 | 11.1 | 39.5 | 15.1 | > 25
14 | COc1cccc2c1C(=O)c1c(O)c3c(c(O)c1C2=O)C[C@@](O)(C(=O)CO)C[C@@H]3O[C@H]1C[C@H](N)[C@H](O)[C@H](C)O1 [DOXORUBICIN] |  |  |  | 26.8 |  | 
15 | COc1ccc2cc(C(C)C(=O)NN3C(=O)CCC3=O)ccc2c1 (stereo not drawn) | 26.7 | 56.2 | 52.8 | 63.8 | 30.4 | > 25
16 | COc1ccc2cc(C(C)c3nnc(-c4ccc(O)cc4)o3)ccc2c1 (stereo not drawn) | 5.89 | 10.5 | 7.29 | 33.9 | 6.15 | > 25
17 | COc1ccc2cc(C(C)c3nnc(-c4ccc([N+](=O)[O-])cc4)o3)ccc2c1 (stereo not drawn) | 42.1 | 75 | 66.3 | > 100 | 35.1 | > 25
18 | COc1ccc2cc(C(C)C(=O)NN=C3CCN(C)CC3)ccc2c1 (stereo not drawn) | 68.7 | 83.6 | 72 | > 100 | 51.6 | 
19 | COc1ccc2cc(C(C)c3nnc(SC)o3)ccc2c1 (stereo not drawn) | 57.2 | 39.9 | 29.5 | 73.5 | 26.2 | > 25
20 | COc1ccc2cc(C(C)c3n[nH]c(=S)n3/N=C/c3ccc(O)cc3)ccc2c1 (stereo not drawn) | 7.74 | 5.14 | 4.83 | 13.8 | 9.03 | > 25
21 | COc1ccc2cc(C(C)C(=O)NN=C3CCCCC3)ccc2c1 (stereo not drawn) | 12.1 | 14.5 | 9.65 | 18.8 | 13 | > 25
22 | CN(C)C/C=C/C(=O)Nc1cc2c(Nc3ccc(F)c(Cl)c3)ncnc2cc1O[C@H]1CCOC1 [AFATINIB] | 7.1 | 11.4 | 7.5 | 7.7 | 6.2 | 
